Patent US20110244589A1, “IN-VIVO PLATELET FUNCTION TEST BY ONLINE BLEEDING VOLUME MEASUREMENT” (priority 2009, published 2011)

Experiments:
platelet function [1] = settings: background statement on the bleeding time test; cited from earlier work
platelet function [2] = assay: bleeding volume test (in-vivo, blotter paper blotch area); parameters: species or system patient; settings: after taking an aspirin, versus before
Description: Bleeding volume is the volume of blood lost during a bleeding time test. Bleeding time is a total length of time between the moment a standardized tiny superficial incision is made in the skin of a patient and the moment the bleeding stops. […] The blotter paper 14 absorbs the blood 16 oozing out of the incision 18 until the patient 10 stops bleeding. One or more blotter papers 14 may be necessary to absorb all of the blood 16.
The in-vivo bleeding volume test results of the patient 10 is indicative of a patient's excessive bleeding tendencies, platelet function and platelet number.
Referring now to FIG. 1, a medical professional conducts the following procedure on the patient 10 being treated. The conditions for consistent blood flow and clotting may be set up. For example, the incision area may be wiped with alcohol which is allowed to completely dry. The patient may either sit in a chair with the forearm in a comfortable stable position or reclining with the forearm at heart level. A blood pressure (e.g., sphygmomanometer) cuff 26 may be placed on an upper arm 22 of the patient 10. By way of example and not limitation, the blood pressure cuff 26 may be inflated to about 40 mm Hg to regulate a constant venous blood pressure in the forearm 24 of the patient 10. […] A round disc blotter paper 14 typically used for determining bleeding time may be placed at the edge of the incision 18. […]

platelet function [3] = assay: bleeding time test (in-vivo); parameters: species or system patient; settings: after taking an aspirin, versus before
Description: The bleeding time of a patient, which is the length of time blood continues to flow after the skin of a patient has been punctured or cut, has been used to identify patients having abnormal bleeding tendencies or platelet dysfunction or low number of platelets. The bleeding time test is an in-vivo test which involves making a standardized incision on the skin then applying a round disc of standardized blotter paper to the enlarging blood droplet adjacent to the incision for precisely thirty (30) seconds, then rotating the blotter paper and applying a fresh edge of the disc to the bleeding incision, and repeating this process until bleeding has stopped. The sequential blotches of blood on the blotter paper should not intersect. The total number of dried blotches of blood on the blotter paper divided by the number two (2) gives the duration of bleeding in minutes. […] The conditions for consistent blood flow and clotting may be set up. For example, the incision area may be wiped with alcohol which is allowed to completely dry. […] To calculate the total bleeding time, the number of blotches 28 may be counted and divided by two to arrive at the bleeding time to the nearest thirty (30) second interval. Alternatively, the bleeding time may be calculated with a stopwatch.

CC(=O)Oc1ccccc1C(=O)O [aspirin]
difference in mean bleeding time of persons who take aspirin and those that take no medication (platelet function [1]): ≤ 2 standard deviations | increases bleeding volume (platelet function [2]): 400% | increase the bleeding time (platelet function [3]): 72%
